From PMC5786788, “Antimicrobial Octapeptin C4 Analogues Active against Cryptococcus Species” (Antimicrobial Agents and Chemotherapy, 2018)
≈ marks a conversion by molar mass, not a printed value. Where a SMILES comes first, the peptide text is derived from it. Bridges are numbered along the chain shown (N, C = ends). [ ]: non-standard residue; d: D form. The star is where a group is joined. Decanoyl(3R-OH) = CCCCCCC[C@@H](O)CC(=O)*; dDab = NCC[C@@H](N)C(=O)O; Dab = NCC[C@H](N)C(=O)O

Experiments:
human kidney-2 cell line = conditions: cited from earlier work
C. neoformans H99 = test system: C. neoformans H99
Protocol: A broth microdilution assay was initially used to characterize the antifungal activity of the cyclic lipopeptides ([39], [40]). […] common pathogenic yeasts (C. albicans, C. glabrata, C. parapsilosis, C. neoformans, and C. gattii) and one pathogenic mold (A. fumigatus) were tested to determine the MIC for each compound (Table 1) using broth microdilution. […] The only structural difference between these molecules is the presence of a phenylalanine residue at position 6 in PMB; in PME a D-leucine is present at this location (Fig. 1).
Fungal strains were stored in 15% glycerol at −80°C until use. The fungal strains used were H99 (C. neoformans type strain) ([55]), cap59Δ (an acapsular H99 mutant) ([56]), ATCC 90113 (C. neoformans), MMRL 2651 (C. gattii), ATCC 90028 (Candida albicans), ATCC 90030 (Candida glabrata), ATCC 22019 (Candida parapsilosis), and ATCC MYA 3626 (Aspergillus fumigatus). Yeasts were cultured in liquid (1% yeast extract, 2% Bacto peptone, 2% glucose) or solid (additional 2% agar) yeast extract-peptone-dextrose (YPD) media at 30°C and maintained at 4°C for no longer than 2 weeks. A. fumigatus was prepared on potato dextrose medium at 30°C and maintained at 4°C for no longer than 2 weeks.
(§1) The MICs of the yeast strains for PMB, PME, and octapeptin C4 and its derivatives were determined in accordance with CLSI M27-A2 guidelines using YNB (Becton Dickinson, USA) medium supplemented with 10 mM ammonium sulfate and 2% glucose, a final inoculum concentration of 1.5 × 10^3 to 2.0 × 10^3 cells/ml, and incubation at 35°C for 72 h ([39]). […] The MICs for PMB, PME, and octapeptin C4 for A. fumigatus were determined in accordance with the CLSI M38-A2 guidelines ([40]) using synthetic RPMI 1640 medium (with glutamine, without bicarbonate and with phenol red; Life Technologies, USA). The final inoculum concentration was 0.4 × 10^4 to 5 × 10^4 cells/ml, with incubation at 35°C for 48 h. […] All assays were completed in triplicate. Fluconazole was used as a positive control where the MIC was determined at both 50% growth (in accordance with CLSI M27-A2 guidelines) and when there was a “no visible growth” reading.

[1] = test system: C. neoformans var. neoformans; experiment: microbe, parasite or virus in culture; conditions: no visible growth
Protocol: as §1

[2] = test system: C. neoformans var. gattii; experiment: organism not typed; conditions: no visible growth
Protocol: as §1

[3] = test system: C. neoformans var. grubii; experiment: organism not typed; conditions: no visible growth
Protocol: The MICs of the yeast strains for PMB, PME, and octapeptin C4 and its derivatives were determined in accordance with CLSI M27-A2 guidelines using YNB (Becton Dickinson, USA) medium supplemented with 10 mM ammonium sulfate and 2% glucose, a final inoculum concentration of 1.5 × 10^3 to 2.0 × 10^3 cells/ml, and incubation at 35°C for 72 h ([39]). […] The MICs for PMB, PME, and octapeptin C4 for A. fumigatus were determined in accordance with the CLSI M38-A2 guidelines ([40]) using synthetic RPMI 1640 medium (with glutamine, without bicarbonate and with phenol red; Life Technologies, USA). The final inoculum concentration was 0.4 × 10^4 to 5 × 10^4 cells/ml, with incubation at 35°C for 48 h. […] All assays were completed in triplicate. Fluconazole was used as a positive control where the MIC was determined at both 50% growth (in accordance with CLSI M27-A2 guidelines) and when there was a “no visible growth” reading. […]

In the case of `CCCCCCC[C@@H](O)CC(=O)N[C@H](CCN)C(=O)N[C@H]1CCNC(=O)[C@H](CC(C)C)NC(=O)[C@H](CCN)NC(=O)[C@H](CCN)NC(=O)[C@H](CC(C)C)NC(=O)[C@@H](Cc2ccccc2)NC(=O)[C@H](CCN)NC1=O` [Octapeptin C4, octapeptin C4] ({Decanoyl(3R-OH)}-[dDab][Dab][Dab][dF]L[Dab][Dab]L; lactam 2-C (inferred); N-terminus assumed), the 50% cytotoxic concentration (human kidney-2 cell line) is listed as 31 µM, the “MIC C. neoformans H99” value (C. neoformans H99; H99, 72 h) is listed as 1.56 µg/mL (≈ 1.49 µM) and the “MICs against various Cryptococcus strains: H99” value (C. neoformans H99; H99, 72 h) is listed as 1.56 µg/mL. For the same molecule, the “fold more potent than PMB” value (C. neoformans H99; by MIC against C. neoformans) was about 8 fold, the “fold more potent than PME” value (C. neoformans H99; by MIC against C. neoformans) was over 60 fold and the MIC ([1]; strain WM 01.127 (USA)) was 1.56 µg/mL (≈ 1.49 µM). For the same molecule, the MIC ([1]; strain WM 02.141 (Russia)) was 3.13 µg/mL (≈ 3 µM), the MIC ([1]; strain WM 02.142 (Russia)) was 1.56 µg/mL (≈ 1.49 µM) and the MIC ([1]; strain WM 02.143 (Russia)) was 3.13 µg/mL (≈ 3 µM). It also gave an MIC ([1]; strain WM 02.37 (Canada)) of 1.56 µg/mL (≈ 1.49 µM), an MIC ([1]; strain WM 02.52 (Canada)) of 1.56 µg/mL (≈ 1.49 µM) and an MIC ([1]; strain WM 04.168 (Chile)) of 1.56 µg/mL (≈ 1.49 µM). It also gave an MIC ([1]; strain WM 04.171 (Thailand, environmental)) of 1.56 µg/mL (≈ 1.49 µM), an MIC ([1]; strain WM 05.467 (Brazil, environmental)) of 1.56 µg/mL (≈ 1.49 µM) and an MIC ([1]; strain WM 05.515 (Peru)) of 1.56 µg/mL (≈ 1.49 µM). The MIC ([1]; strain WM 09.109 (Italy, environmental)) was 1.56 µg/mL (≈ 1.49 µM), the MIC ([1]; strain WM 09.112 (USA)) was 1.56 µg/mL (≈ 1.49 µM) and the MIC ([1]; strain WM 10.119 (Australia)) was 1.56 µg/mL (≈ 1.49 µM). For the same molecule, the MIC ([1]; strain WM 629 (Australia)) was 3.13 µg/mL (≈ 3 µM), the MIC ([1]; strain WM 1706 (Argentina)) was 1.56 µg/mL (≈ 1.49 µM) and the MIC ([1]; strain WM 1740 (Chile)) was 3.13 µg/mL (≈ 3 µM). It also gave an MIC ([1]; strain WM 2207 (USA, environmental)) of 1.56 µg/mL (≈ 1.49 µM), an MIC ([1]; strain WM 2242 (USA)) of 1.56 µg/mL (≈ 1.49 µM) and an MIC ([1]; strain WM 2530 (USA)) of 3.13 µg/mL (≈ 3 µM). For the same molecule, the MIC ([2]; strain ATCC 24066 (NIH 18)) was 1.56 µg/mL (≈ 1.49 µM), the MIC ([2]; strain ATCC 32269) was 3.13 µg/mL (≈ 3 µM) and the MIC ([2]; strain ATCC 32608 (NIH 191)) was 0.78 µg/mL (≈ 0.747 µM). For the same molecule, the MIC ([2]; strain ATCC 32609 (NIH444)) was 3.13 µg/mL (≈ 3 µM), the MIC ([2]; strain ATCC 34878) was 3.13 µg/mL (≈ 3 µM) and the MIC ([2]; strain ATCC 34882) was 6.25 µg/mL (≈ 5.98 µM). It also gave an MIC ([2]; strain B5748 (VGIV HIV India)) of 3.13 µg/mL (≈ 3 µM), an MIC ([2]; strain R266 (Vancouver Island)) of 1.56 µg/mL (≈ 1.49 µM) and an MIC ([2]; strain R267 (Vancouver Island)) of 12.50 µg/mL (≈ 12 µM). It also gave an MIC ([2]; strain R268 (Vancouver Island)) of 3.13 µg/mL (≈ 3 µM), an MIC ([2]; strain R269 (Vancouver Island)) of 3.13 µg/mL (≈ 3 µM) and an MIC ([2]; strain R270 (Vancouver Island)) of 3.13 µg/mL (≈ 3 µM). The MIC ([3]; strain 486 (USA)) was 3.13 µg/mL (≈ 3 µM), the MIC ([3]; strain 488 (AIDS+, pre-HAART USA)) was 1.56 µg/mL (≈ 1.49 µM) and the MIC ([3]; strain 490 (USA)) was 1.56 µg/mL (≈ 1.49 µM). For the same molecule, the MIC ([3]; strain 496 (USA)) was 1.56 µg/mL (≈ 1.49 µM), the MIC ([3]; strain 500 (USA)) was 1.56 µg/mL (≈ 1.49 µM) and the MIC ([3]; strain 502 (ARR3+ USA)) was 3.13 µg/mL (≈ 3 µM). For the same molecule, the MIC ([3]; strain 505 (India)) was 1.56 µg/mL (≈ 1.49 µM), the MIC ([3]; strain 507 (India)) was 1.56 µg/mL (≈ 1.49 µM) and the MIC ([3]; strain 512 (India)) was 3.13 µg/mL (≈ 3 µM). It also gave an MIC ([3]; strain 516 (India)) of 3.13 µg/mL (≈ 3 µM), an MIC ([3]; strain 518 (VNI India)) of 1.56 µg/mL (≈ 1.49 µM) and an MIC ([3]; strain 522 (India)) of 3.13 µg/mL (≈ 3 µM). The MIC ([3]; strain 525 (India)) was 1.56 µg/mL (≈ 1.49 µM), the MIC ([3]; strain 1188 (Japan lung)) was 3.13 µg/mL (≈ 3 µM) and the MIC ([3]; strain 1189 (USA BAL/HIV)) was 1.56 µg/mL (≈ 1.49 µM). The MIC ([3]; strain 1194 (Italy)) was 1.56 µg/mL (≈ 1.49 µM), the MIC ([3]; strain 1196 (Botswana CSF/AIDS)) was 3.13 µg/mL (≈ 3 µM) and the MIC ([3]; strain 1197 (Botswana CSF/AIDS)) was 3.13 µg/mL (≈ 3 µM). For the same molecule, the MIC ([3]; strain 1199 (Uganda CSF/HIV+ VNII)) was 1.56 µg/mL (≈ 1.49 µM) and the MIC ([3]; strain H99O (lab strain)) was 1.56 µg/mL (≈ 1.49 µM).
